This note sets out measurements from ChEMBL document CHEMBL1201862, “PubChem BioAssay data set” (2004).

Each structure is given as a SMILES string.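 Results reflect a 48-hour exposure of cells in 96-well plates to compound at five concentrations. Here, GI50 denotes the concentration required for 50% inhibition of growth.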 Calls of active or inactive are those of the source. No stated cut-off is given here; in the data, active = GI50 up to about 1.1 µM and inactive = higher.

Among the test systems are A498; BT-549; CAKI-1; HCC 2998; HOP-62; NCI-H460; OVCAR-3; OVCAR-4; OVCAR-5; SF-295; SN12C; SNB-19; SR; T47D; TK-10; UO-31; HL-60; IGROV-1; SK-MEL-5; Malme-3M.
Common to all, as to test: DTP human tumour cell line panel, 48 h

Regarding `CCOC(=O)[C@H]1C[C@@H](C(=O)c2ccccc2)N2N=C(c3ccc(Br)cc3)C=C[C@H]12`, the GI50 in the experiment with A498, in the experiment on BT-549, in the experiment on CAKI-1, in the experiment with HCC 2998, in the experiment on HOP-62 and with NCI-H460 was > 100 µM (inactive) throughout. The GI50 in the experiment with OVCAR-3, in the experiment with OVCAR-4, in the experiment on OVCAR-5, with SF-295, in the experiment with SN12C and in the experiment on SNB-19 was > 100 µM (inactive) each time. The GI50 – broadly, the concentration giving 50% growth inhibition – with SR is 9.48 µM (inactive); in the experiment on T47D, > 100 µM (inactive); in the experiment on TK-10, > 100 µM (inactive); in the experiment with UO-31, > 100 µM (inactive).

For the molecule `C[n+]1c(-c2ccc(/C=N\N3CCN(/N=C/c4ccc(-c5cn6ccsc6[n+]5C)cc4)CC3)cc2)cn2ccsc21`, the GI50 is 23.1 µM (inactive) with A498; 17.1 µM (inactive) in the experiment on BT-549; 34 µM (inactive) in the experiment with CAKI-1; 21.2 µM (inactive) in the experiment with HL-60; 30.7 µM (inactive) with IGROV-1; 26.7 µM (inactive) in the experiment on NCI-H460. For the same molecule, the GI50 with OVCAR-3 was 59.8 µM (inactive); in the experiment on OVCAR-4 it was 28.4 µM (inactive); with OVCAR-5 it was > 100 µM (inactive); in the experiment on SF-295, 28.6 µM (inactive); in the experiment with SK-MEL-5 it was 22.8 µM (inactive); in the experiment with SN12C, 35.2 µM (inactive). Moreover, the GI50 was 38.4 µM (inactive) in the experiment with SNB-19; 41.4 µM (inactive) with SR; 12.7 µM (inactive) in the experiment on T47D; 35.7 µM (inactive) with TK-10; 89.5 µM (inactive) with UO-31.

For the molecule `CC(=O)Nc1ccc(-c2cc(C(=O)O)c3cc4ccccc4cc3n2)cc1`, the GI50 in the experiment with A498, with BT-549, in the experiment with CAKI-1, in the experiment on HL-60, with HOP-62 and with IGROV-1 was > 100 µM (inactive) in each case. In addition, the GI50 in the experiment on Malme-3M, in the experiment on NCI-H460, in the experiment on OVCAR-3, in the experiment on OVCAR-4, with OVCAR-5 and in the experiment on SF-295 was > 100 µM (inactive) each time. Besides, the GI50 with SK-MEL-5, in the experiment on SN12C, with SNB-19, with SR, with T47D and with TK-10 was > 100 µM (inactive) in each case.

Regarding `CCOC(=O)C(NC(=O)c1ccccc1)(c1ccc(S(=O)(=O)Nc2onc(C)c2C)cc1)C(F)(F)F` (configuration not stated), the GI50 in the experiment with BT-549, in the experiment with CAKI-1, in the experiment on HCC 2998, in the experiment with HL-60, in the experiment with HOP-62 and in the experiment with IGROV-1 was > 100 µM (inactive) throughout. The GI50 with Malme-3M, in the experiment with NCI-H460, in the experiment on OVCAR-3, in the experiment with OVCAR-4, in the experiment on OVCAR-5 and with SF-295 was > 100 µM (inactive) each time. Further, the GI50 in the experiment on SK-MEL-5, in the experiment with SN12C, in the experiment on SNB-19, in the experiment with SR, with T47D and in the experiment on TK-10 was > 100 µM (inactive) each time. For the same molecule, the GI50 in the experiment on UO-31 is > 100 µM (inactive).

For the molecule `CS(=O)(=O)N(CC(=O)O)Cc1ccccc1`, the GI50 in the experiment with A498, in the experiment with BT-549, in the experiment with CAKI-1, in the experiment on HOP-62, with IGROV-1 and in the experiment on Malme-3M was > 100 µM (inactive) each time. Moreover, the GI50 with NCI-H460, in the experiment on OVCAR-3, with OVCAR-4, with OVCAR-5, in the experiment on SF-295 and in the experiment with SK-MEL-5 was > 100 µM (inactive) each time. Moreover, the GI50 in the experiment with SN12C, in the experiment with SNB-19, with SR, in the experiment on T47D and with TK-10 was > 100 µM (inactive) in each case.

For the molecule `Fc1cccc(Cl)c1/C=N\N=C1c2ccccc2-c2ccccc21`, the GI50 was > 100 µM (inactive) in the experiment with A498; > 100 µM (inactive) in the experiment on BT-549; > 100 µM (inactive) in the experiment with CAKI-1; > 100 µM (inactive) in the experiment on HL-60; 65.6 µM (inactive) in the experiment on HOP-62; 64.3 µM (inactive) in the experiment on IGROV-1. Also, the GI50 in the experiment with Malme-3M is 76.7 µM (inactive); in the experiment on NCI-H460 it was 79.8 µM (inactive); in the experiment with OVCAR-3, 69.2 µM (inactive); with OVCAR-4, 49.4 µM (inactive); with OVCAR-5 it was > 100 µM (inactive); with SF-295, 61.7 µM (inactive). Further, the GI50 is > 100 µM (inactive) in the experiment on SK-MEL-5; > 100 µM (inactive) in the experiment with SN12C; 98.9 µM (inactive) with SNB-19; 51.2 µM (inactive) in the experiment with SR; 30 µM (inactive) with T47D; > 100 µM (inactive) with TK-10. Also, the GI50 with UO-31 was > 100 µM (inactive).

For the molecule `COC(=O)C(CCCCN)NC(C)=O.Cc1ccc(C(=O)Nc2ccc(S(=O)(=O)O)c3cc(S(=O)(=O)O)cc(S(=O)(=O)O)c23)cc1NC(=O)c1cccc(NC(=O)Nc2cccc(C(=O)Nc3cc(C(=O)Nc4ccc(S(=O)(=O)O)c5cc(S(=O)(=O)O)cc(S(=O)(=O)O)c45)ccc3C)c2)c1`, the GI50 in the experiment on A498, in the experiment with BT-549, with CAKI-1, in the experiment on HCC 2998, in the experiment with HL-60 and in the experiment on NCI-H460 was > 50 µM (inactive) throughout. Also, the GI50 in the experiment with OVCAR-3 was > 50 µM (inactive); with OVCAR-4, 0.5 µM (active); with OVCAR-5, > 50 µM (inactive); in the experiment with SF-295, > 50 µM (inactive); in the experiment on SK-MEL-5, > 50 µM (inactive); in the experiment with SN12C it was > 50 µM (inactive). For the same molecule, the GI50 in the experiment on SNB-19, in the experiment with SR, in the experiment on T47D and in the experiment with UO-31 was > 50 µM (inactive) in each case.

For `COc1ccc(-n2sc3ncccc3c2=O)cc1`, the GI50 is 20.4 µM (inactive) with BT-549; 46.5 µM (inactive) with HCC 2998; 3.58 µM (inactive) in the experiment on HL-60; 23.1 µM (inactive) in the experiment with HOP-62; 23.6 µM (inactive) with IGROV-1; 15.8 µM (inactive) in the experiment with Malme-3M. Moreover, the GI50 in the experiment on NCI-H460 was 34.6 µM (inactive); in the experiment with OVCAR-3, 23 µM (inactive); in the experiment with OVCAR-4, > 100 µM (inactive); in the experiment on OVCAR-5 it was 24.8 µM (inactive); in the experiment with SF-295, > 100 µM (inactive); in the experiment on SK-MEL-5, 20 µM (inactive). Also, the GI50 was 38.2 µM (inactive) in the experiment with SN12C; > 100 µM (inactive) in the experiment on SNB-19; 13.2 µM (inactive) in the experiment on SR; 17.7 µM (inactive) in the experiment with T47D; 18.9 µM (inactive) in the experiment with TK-10; 19.1 µM (inactive) in the experiment on UO-31.

On to `CCOc1cc(C2SCC(=O)N2c2ccc(Oc3ccc(Cl)cc3)c(Cl)c2)ccc1O` (configuration not stated), for which the GI50 is 15.1 µM (inactive) with BT-549; 17.3 µM (inactive) in the experiment on CAKI-1; 17.9 µM (inactive) in the experiment with HCC 2998; 12.6 µM (inactive) with HL-60; 17.6 µM (inactive) in the experiment on HOP-62; 15.9 µM (inactive) in the experiment on IGROV-1. For the same molecule, the GI50 in the experiment on Malme-3M is 17.1 µM (inactive); in the experiment with NCI-H460 it was 19.2 µM (inactive); in the experiment with OVCAR-3, 14 µM (inactive); in the experiment with OVCAR-4, 16 µM (inactive); with OVCAR-5, 20.2 µM (inactive); in the experiment with SF-295, 18.9 µM (inactive). Moreover, the GI50 with SK-MEL-5 is 16.1 µM (inactive); in the experiment on SN12C, 33 µM (inactive); in the experiment on SNB-19, 17.8 µM (inactive); in the experiment with SR it was 2.04 µM (inactive); in the experiment with T47D it was 14.2 µM (inactive); in the experiment on TK-10, 17.6 µM (inactive). In addition, the GI50 in the experiment with UO-31 is 10 µM (inactive).

Consider `COC(=O)c1ccccc1Nc1nc(-c2cccs2)nc2cc(OC)c(OC)cc12`, for which the GI50 in the experiment on A498 is > 100 µM (inactive); in the experiment on BT-549 it was > 100 µM (inactive); with CAKI-1, 39.4 µM (inactive); in the experiment with HL-60, > 100 µM (inactive); in the experiment with HOP-62, 18.3 µM (inactive); in the experiment with IGROV-1, 14.7 µM (inactive). Moreover, the GI50 is 61 µM (inactive) in the experiment with Malme-3M; 58.6 µM (inactive) in the experiment with NCI-H460; 40.2 µM (inactive) with OVCAR-3; 40.6 µM (inactive) with OVCAR-4; 36.2 µM (inactive) in the experiment with OVCAR-5; 29.2 µM (inactive) in the experiment on SF-295. Moreover, the GI50 in the experiment on SK-MEL-5 was > 100 µM (inactive); with SN12C it was 48.5 µM (inactive); in the experiment with SNB-19, 33.1 µM (inactive); in the experiment with SR, 18 µM (inactive); with T47D it was 37 µM (inactive); with TK-10 it was 28.3 µM (inactive). Moreover, the GI50 in the experiment on UO-31 is > 100 µM (inactive).

In the case of `O=C(O)CNC(=O)c1ccccc1O` [SALICYLURIC ACID], the GI50 in the experiment with A498, with BT-549, with CAKI-1, in the experiment on HL-60, in the experiment on HOP-62 and in the experiment with IGROV-1 was > 100 µM (inactive) in each case. Further, the GI50 in the experiment on Malme-3M, in the experiment on NCI-H460, in the experiment on OVCAR-3, with OVCAR-4, in the experiment with OVCAR-5 and in the experiment on SF-295 was > 100 µM (inactive) each time. Moreover, the GI50 in the experiment with SK-MEL-5, in the experiment with SN12C, in the experiment with SNB-19, in the experiment with SR, with T47D and in the experiment with TK-10 was > 100 µM (inactive) each time. Besides, in the experiment with UO-31, the GI50 is > 100 µM (inactive).
